In patent US20260209214A1, “LSD1 MODULATORS” (RECURSION PHARMACEUTICALS, INC., priority 2022, published 2026):

Target: Recombinant human LSD1 (Homo sapiens, UniProt O60341)
Test: LSD1 inhibition assay (HTRF LSD1 Histone H3K4 mono-demethylation assay, me1->me0)
Assay type: biochemical
Conditions: 20 nM recombinant human LSD1, 95 nM H3K4(me1) biotinylated peptide, 15 min preincubation, 60 min at 25° C., read-out: LSD1 inhibition IC50 (nM range)
Outline: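 HTRF demethylation (me1->me0) read-out: streptavidin-XL665 and anti-H3K4me0 cryptate added after reaction, ratio measured after 90 min dark. Reaction: 95 nM H3K4me1 biotin-peptide, 20 nM LSD1 (15-min compound pre-incubation), 60 min, 25 °C, buffer pH 8.5 plus FAD and DTT; 4-parameter logistic IC50.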

SMILES | IC50
C[C@@H]1[C@@H](N)CCCN1Cc1cccc(-c2ccc(C#N)c(F)c2)c1Cl [Example 329, 3'-{[(2R,3S)-3-amino-2-methylpiperidin-1-yl]methyl}-2'-chloro-3-fluoro-[1,1'-biphenyl]-4-carbonitrile] | > 1000 nM
C[C@@H]1CC[C@H](N)CN1Cc1cccc(-c2ccc(C#N)c(F)c2)c1Cl [Example 330, 3'-{[(2R,5S)-5-amino-2-methylpiperidin-1-yl]methyl}-2'-chloro-3-fluoro-[1,1'-biphenyl]-4-carbonitrile] | > 1000 nM
N#Cc1ccc(-c2cccc(CN3CCCC(N)C3)c2Cl)cc1F (stereo not shown) [Example 332, 3'-[(3-aminopiperidin-1-yl)methyl]-2'-chloro-3-fluoro-[1,1'-biphenyl]-4-carbonitrile] | 100 to 1000 nM
N#Cc1ccc(-c2cccc(CN3CC4(CCCNC4)C3)c2-c2cnco2)cc1F [Example 333, 3'-({2,6-diazaspiro[3.5]nonan-2-yl}methyl)-3-fluoro-2'-(1,3-oxazol-5-yl)-[1,1'-biphenyl]-4-carbonitrile] | 10 to 25 nM
N#Cc1ccc(-c2ccc(F)c(CN3C[C@]4(N)CC[C@H]3C4)c2-c2cnco2)cc1F [Example 334, 3'-{[(1S,4S)-4-amino-2-azabicyclo[2.2.1]heptan-2-yl]methyl}-3,4'-difluoro-2'-(1,3-oxazol-5-yl)-[1,1'-biphenyl]-4-carbonitrile] | 10 to 25 nM
N#Cc1ccc(-c2cccc(CN3C[C@]4(N)CC[C@H]3C4)c2-c2cnco2)cc1F [Example 335, 3'-{[(1S,4S)-4-amino-2-azabicyclo[2.2.1]heptan-2-yl]methyl}-3-fluoro-2'-(1,3-oxazol-5-yl)-[1,1'-biphenyl]-4-carbonitrile] | < 10 nM
CNC1CCN(Cc2cccc(-c3ccc(C#N)c(F)c3)c2-c2cnco2)C1 (stereo not shown) [Example 336, 3-fluoro-3'-{[3-(methylamino)pyrrolidin-1-yl]methyl}-2'-(1,3-oxazol-5-yl)-[1,1'-biphenyl]-4-carbonitrile] | 10 to 25 nM
N#Cc1ccc(-c2cccc(CN3CC(F)(F)[C@@]34CCNC4)c2Cl)cc1F [Example 337, 2'-chloro-3'-{[(4S)-3,3-difluoro-1,6-diazaspiro[3.4]octan-1-yl]methyl}-3-fluoro-[1,1'-biphenyl]-4-carbonitrile] | > 1000 nM
N#Cc1ccc(-c2cccc(CN3CCNCC(F)(F)C3)c2Cl)cc1F [Example 338, 2'-chloro-3'-[(6,6-difluoro-1,4-diazepan-1-yl)methyl]-3-fluoro-[1,1'-biphenyl]-4-carbonitrile] | > 1000 nM
N#Cc1ccc(-c2cccc(CN3CCC4(CC3)CNC4)c2Cl)cc1F [Example 339, 2'-chloro-3'-({2,7-diazaspiro[3.5]nonan-7-yl}methyl)-3-fluoro-[1,1'-biphenyl]-4-carbonitrile] | 25 to 100 nM
N#Cc1ccc(-c2cccc(CN3CCC4(CNC4)C3)c2Cl)cc1F [Example 341, 2'-chloro-3'-({2,6-diazaspiro[3.4]octan-6-yl}methyl)-3-fluoro-[1,1'-biphenyl]-4-carbonitrile] | 100 to 1000 nM
C[C@]1(N)CCN(Cc2c(F)ccc(-c3ccc(C#N)c(F)c3)c2Cl)C1 [Example 342, 3'-{[(3S)-3-amino-3-methylpyrrolidin-1-yl]methyl}-2'-chloro-3,4'-difluoro-[1,1'-biphenyl]-4-carbonitrile] | 100 to 1000 nM
N#Cc1ccc(-c2cc(CN3CC4(CNCCO4)C3)ccc2N2CCCC2)cc1 [Example 343, 5'-({5-oxa-2,8-diazaspiro[3.5]nonan-2-yl}methyl)-2'-(pyrrolidin-1-yl)-[1,1'-biphenyl]-4-carbonitrile] | > 1000 nM
N#Cc1ccc(-c2cc(CN3CC4(CNCCO4)C3)ccc2N2CCCC2)cc1F [Example 344, 3-fluoro-5'-({5-oxa-2,8-diazaspiro[3.5]nonan-2-yl}methyl)-2'-(pyrrolidin-1-yl)-[1,1'-biphenyl]-4-carbonitrile] | > 1000 nM
Cc1cc(CN2C[C@@H]3C[C@H]2CN3C2COC2)c(Cl)c(-c2ccc(C#N)c(F)c2)c1 [Example 345] | > 1000 nM
Cc1cc(CNCC2CCCN(C)C2)c(Cl)c(-c2ccc(C#N)c(F)c2)c1 (stereo not shown) [Example 346, 2'-chloro-3-fluoro-5'-methyl-3'-({[(1-methylpiperidin-3-yl)methyl]amino}methyl)-[1,1'-biphenyl]-4-carbonitrile] | 100 to 1000 nM
Cc1cc(CN2C[C@@H]3[C@@H](N)[C@@H]3C2)c(Cl)c(-c2ccc(C#N)c(F)c2)c1 [Example 347, 3'-{[(1R,5S,6R)-6-amino-3-azabicyclo[3.1.0]hexan-3-yl]methyl}-2'-chloro-3-fluoro-5'-methyl-[1,1'-biphenyl]-4-carbonitrile] | 100 to 1000 nM
Cc1cc(CNCC2CCCNC2)c(Cl)c(-c2ccc(C#N)c(F)c2)c1 (stereo not shown) [Example 348, 2'-chloro-3-fluoro-5'-methyl-3'-({[(piperidin-3-yl)methyl]amino}methyl)-[1,1'-biphenyl]-4-carbonitrile] | 100 to 1000 nM
C[C@@]1(N)CCN(Cc2cccc(-c3ccc(C#N)c(F)c3)c2C2CC2)C1 [Example 349, 3'-{[(3R)-3-amino-3-methylpyrrolidin-1-yl]methyl}-2'-cyclopropyl-3-fluoro-[1,1'-biphenyl]-4-carbonitrile] | 100 to 1000 nM
